The values below come from PubChem BioAssay (NCI).

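Following 48 hours of exposure in 96-well plates, responses at five concentrations were used to interpolate endpoints linearly. GI50 is the concentration that inhibits growth by half. TGI marks complete inhibition of growth.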 Bounds are passed on as bounds.

Among the test systems are OVCAR-5 ovarian; COLO 205 colon; SF-539 CNS; MDA-MB-231 breast; HOP-62 NSCLC; SW-620 colon; DU-145 prostate; KM12 colon; UACC-62 melanoma; T-47D breast.
Experiment in all cases: growth of human tumour cells (NCI), 48 h

With `O=C1c2ccccc2-c2c1c1ccccc1c(=O)n2CCNCCNCCNCCn1c2c(c3ccccc3c1=O)C(=O)c1ccccc1-2`, the GI50 in the test on OVCAR-5 ovarian was 449 nM; in the test with COLO 205 colon, 1760 nM; with SF-539 CNS, 273 nM; in the test with MDA-MB-231 breast it was 136 nM; in the test with HOP-62 NSCLC, 48.3 nM; with SW-620 colon it was 194 nM. Moreover, the GI50 in the test with DU-145 prostate was 330 nM; in the test with KM12 colon, 669 nM; in the test on UACC-62 melanoma it was 379 nM; in the test with T-47D breast, 2950 nM. In addition, the TGI is more than 20300 nM in the test with COLO 205 colon; 1580 nM in the test with SF-539 CNS; 1010 nM in the test with MDA-MB-231 breast; 2450 nM in the test with HOP-62 NSCLC; more than 100000 nM with SW-620 colon; 1760 nM in the test on DU-145 prostate. The TGI was 3220 nM in the test on KM12 colon, 1540 nM in the test on UACC-62 melanoma and more than 100000 nM with T-47D breast.
